Measurements taken from patent US10254288B2, “Method for species-independent measurement of complement activation in animals” (Quidel Corporation, priority 2013, dated 2019).

Experiments:
[1] = tested on: C activation in dog serum; assay: Complement activation by different activators in dog serum, pan-species C3 method; format: biochemical; conditions: SC5b-9 ELISA to determine SC5b-9
Protocol: Methods • The sera that were not of commercial origin were prepared from freshly drawn blood, which was let to clot at room temperature for 10-30 min, followed by centrifugation and collection of the supernatant. The serum was then stored at −80° C. until use. Zymosan (final concentration: 1.3 mg/ml) was prepared by suspending it at 2% in 0.15 M sodium chloride, boiling in a water bath for one hour, then centrifuged for 30 minutes at 4000 rpm. The supernatant was discarded and the residue suspended evenly in 0.15 M sodium chloride to 2%. • HAGG was diluted 100-fold (to a final concentration: 0.5 mg/mL). • 10 μL Zymosan (20 mg/ml) or HAGG were incubated for 1 h at 37° C. with a mixture of 20 μL animal serum, and 20 μl C3depl-NHS 100 μl PBS. The reaction was stopped by the addition of the 10 μl stop solution, and 100 μL of a 1:1600 dilution from the mixtures were applied to the wells of the SC5b-9 ELISA plates to measure the formation of SC5b-9 as specified by the manufacturer.
Materials and Methods • Dog blood was obtained from WellPet Animal Clinic (Kecskemét, Géza Fejedelem körút 51. Hungary). Serum was prepared by letting the blood clot at 4° C. for about 10 min (dog blood clots rapidly), followed by centrifugation and collection of supernatant serum. […]

rat C3 = assay: C3 consumption in rats in vivo, PS-C3 method in hirudinized plasma samples; conditions: 12.5 U/kg CVF
Protocol: Male Wistar rats (340-480 g) were anesthetized i.p. by Na-pentobarbital (Nembutal, 50 mg/kg) or thiobutabarbital (lnactin, 120 mg/kg). The left femoral artery and vein, left carotid artery, and right jugular vein were cannulated. Rats were anticoagualated with lepirudin (Refludan, 5 mg/kg), then injected i.v. with the C activator liposomes, Doxil and Ambisome. Blood samples were collected from the carotid artery at start (time 0) and at 1-3-5-10-30 min postinjection.
Similar experiments as described in Example 7, except that the rats were injected with 10 mg/kg zymosan or 12.5 U/kg CVF.
Similar experiments as described in Example 11, except that C activation was measured by Quidel's human SC5b-9 (A) and C3a kits (B). Rats were injected with 12.5 U/kg CVF.

Compound	rise of SC5b-9 over PBS control [1]	human C3a in the reaction mixture (Quidel's C3a kit) (rat C3)	time to consume essentially all C3 (rat C3)	C3 consumed (rat C3; within 30 min)
CCCCCCCC/C=C\CCCCCCCC(=O)OCCOCC(OCCO)C1OCC(OCCO)C1OCCO (stereo not shown) [Tween 80]	~30 fold			
CVF		elevated	≤ 30 min	essentially all C3
